Assay results from PubChem BioAssay (NCI).
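The compound was tested at five concentrations on cells cultured in 96-well plates, with a 48-hour exposure period. GI50: concentration for 50% inhibition of growth. TGI denotes the concentration required for complete inhibition of growth.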

Experiments:
Test in all cases: growth of human tumour cells (NCI), 48 h
BT-549 breast = system: BT-549 breast
DU-145 prostate = system: DU-145 prostate
NCI-H226 lung = system: NCI-H226 lung
SF-268 CNS = system: SF-268 CNS
NCI-H460 lung = system: NCI-H460 lung
T-47D breast = system: T-47D breast

SMILES: NS(=O)(=O)c1nnc(NS(=O)(=O)C(F)(F)F)s1
- TGI (BT-549 breast): > 100 µM
- TGI (DU-145 prostate): > 100 µM
- TGI (NCI-H226 lung): > 100 µM
- TGI (SF-268 CNS): > 100 µM
- TGI (NCI-H460 lung): > 100 µM

SMILES: c1cc2nnc1SCCCSc1ccc(nn1)SCCCS2
- TGI (BT-549 breast): > 100 µM
- TGI (DU-145 prostate): > 100 µM
- TGI (T-47D breast): > 100 µM
- TGI (NCI-H226 lung): > 94.1 µM
- TGI (SF-268 CNS): > 100 µM
- TGI (NCI-H460 lung): > 100 µM

SMILES: C=C1CC(c2ccc(OCCCN3C(=O)c4ccccc4C3=O)cc2)OC1=O (stereo not drawn)
- TGI (DU-145 prostate): 16.3 µM
- TGI (T-47D breast): > 34.7 µM
- TGI (NCI-H226 lung): 11.4 µM
- TGI (SF-268 CNS): 15.4 µM
- TGI (NCI-H460 lung): 8.42 µM

SMILES: Fc1ccc(N2C(=S)SC(=Nc3ccccc3)C2=Nc2ccccc2)cc1
- TGI (BT-549 breast): > 100 µM
- TGI (DU-145 prostate): > 100 µM
- TGI (T-47D breast): > 100 µM
- TGI (NCI-H226 lung): > 100 µM
- TGI (SF-268 CNS): > 100 µM
- TGI (NCI-H460 lung): > 100 µM

SMILES: COc1ccc(OC)c(N(CN2C(=O)CCC2C(=O)O)C(C)=O)c1 (stereo not drawn)
- TGI (DU-145 prostate): > 100 µM
- TGI (T-47D breast): > 100 µM
- TGI (NCI-H226 lung): > 100 µM
- TGI (SF-268 CNS): > 100 µM

SMILES: O=C(c1ccccc1)N(C(=O)c1ccccc1)c1nc(SCc2ccccc2)ns1
- TGI (BT-549 breast): 70.5 µM
- TGI (DU-145 prostate): > 100 µM
- TGI (T-47D breast): > 100 µM
- TGI (NCI-H226 lung): 78.7 µM
- TGI (SF-268 CNS): > 100 µM
- TGI (NCI-H460 lung): 56.2 µM

SMILES: Oc1ccc2cc(Br)ccc2c1-c1c(O)ccc2ccc(Br)cc12
- TGI (BT-549 breast): 27.9 µM
- TGI (DU-145 prostate): 29.2 µM
- TGI (T-47D breast): 25.3 µM
- TGI (NCI-H226 lung): 30.4 µM
- TGI (SF-268 CNS): 41.1 µM
- TGI (NCI-H460 lung): 15.3 µM

SMILES: COC(=O)c1cc2c(c3c1CC(Cc1ccccc1)C3=O)CCC2 (stereo not drawn)
- TGI (DU-145 prostate): > 100 µM
- TGI (T-47D breast): > 100 µM
- TGI (NCI-H226 lung): > 100 µM
- TGI (SF-268 CNS): > 100 µM
- TGI (NCI-H460 lung): > 100 µM

SMILES: Cc1cc(N(CCC#N)CCC#N)ccc1/C(N=Nc1cccc(Cl)c1)=N/NC(=O)c1cc(Cl)ccc1O
- TGI (BT-549 breast): 62 µM
- TGI (DU-145 prostate): 42.6 µM
- TGI (T-47D breast): 60.6 µM
- TGI (NCI-H226 lung): 84.2 µM
- TGI (SF-268 CNS): 75.2 µM
- TGI (NCI-H460 lung): 31.9 µM

SMILES: COC(=O)c1ccc(S)c(S(=O)(=O)Nc2n[nH]c(N)n2)c1
- TGI (BT-549 breast): > 100 µM
- TGI (DU-145 prostate): > 100 µM
- TGI (T-47D breast): > 100 µM
- TGI (NCI-H460 lung): > 100 µM

SMILES: [N-]=[N+]=NI1OC(=O)c2ccccc21
- TGI (DU-145 prostate): > 100 µM
- TGI (T-47D breast): > 100 µM
- TGI (NCI-H226 lung): > 100 µM
- TGI (SF-268 CNS): > 100 µM

SMILES: CCOC(=O)CNC(=O)C(CSC(=O)N(O)c1ccc(Cl)cc1)NC(=O)CCC(N)C(=O)OCC (stereo not drawn)
- TGI (BT-549 breast): > 50 µM
- TGI (DU-145 prostate): > 50 µM
- TGI (T-47D breast): > 50 µM
- TGI (NCI-H226 lung): > 50 µM
- TGI (SF-268 CNS): > 50 µM
- TGI (NCI-H460 lung): > 50 µM

SMILES: O=[N+]([O-])c1ccc(OC2CC3C4C=CC3C2C4)c([N+](=O)[O-])c1 (stereo not drawn)
- TGI (DU-145 prostate): > 100 µM
- GI50 (T-47D breast): > 100 µM
- TGI (T-47D breast): > 100 µM
- TGI (NCI-H226 lung): > 100 µM
- GI50 (SF-268 CNS): > 100 µM
- TGI (SF-268 CNS): > 100 µM
- GI50 (NCI-H460 lung): > 100 µM
- TGI (NCI-H460 lung): > 100 µM

SMILES: COc1ccc(OC)c(CNc2ccc(C(=O)O)cc2)c1
- TGI (BT-549 breast): > 100 µM
- TGI (DU-145 prostate): > 100 µM
- TGI (NCI-H226 lung): > 100 µM
- TGI (SF-268 CNS): > 100 µM

SMILES: Clc1cc(Cl)cc(N=C/C=C/Nc2cc(Cl)cc(Cl)c2)c1
- TGI (BT-549 breast): > 100 µM
- TGI (DU-145 prostate): 44.3 µM
- TGI (T-47D breast): > 100 µM
- TGI (NCI-H226 lung): 32.8 µM
- TGI (SF-268 CNS): 47.6 µM
- TGI (NCI-H460 lung): 43.5 µM

SMILES: CCOP1(=O)CC(C)=C(Cl)C(O)C1 (stereo not drawn)
- TGI (BT-549 breast): > 100 µM
- TGI (DU-145 prostate): > 100 µM
- TGI (T-47D breast): > 100 µM
- TGI (NCI-H226 lung): > 100 µM
- TGI (SF-268 CNS): > 100 µM
- TGI (NCI-H460 lung): > 100 µM

SMILES: NNC(=O)c1c(-c2cccnc2)cnc2ccccc12
- TGI (BT-549 breast): > 100 µM
- TGI (DU-145 prostate): > 100 µM
- TGI (NCI-H226 lung): > 100 µM
- TGI (SF-268 CNS): > 100 µM
- TGI (NCI-H460 lung): > 100 µM

SMILES: O=C1C(Cl)C2(CC(/C=C/c3ccccc3)=NN2c2cccc(S(=O)(=O)O)c2)N1c1nc2ccccc2s1 (stereo not drawn)
- TGI (BT-549 breast): 28.5 µM
- TGI (T-47D breast): 27.9 µM
- TGI (NCI-H226 lung): 56.2 µM
- TGI (SF-268 CNS): 43.4 µM
- TGI (NCI-H460 lung): 46.6 µM

SMILES: CCc1c(C)c(C#N)c(=S)n(C2OC(COC(C)=O)C(OC(C)=O)C(OC(C)=O)C2OC(C)=O)c1-c1ccccc1 (stereo not drawn)
- TGI (BT-549 breast): > 100 µM
- TGI (DU-145 prostate): > 31.6 µM
- TGI (T-47D breast): > 31.6 µM
- TGI (NCI-H226 lung): > 31.6 µM
- TGI (SF-268 CNS): > 31.6 µM
- TGI (NCI-H460 lung): > 31.6 µM

SMILES: NC1CC(=O)c2c1sc(Cl)c2Cl (stereo not drawn)
- TGI (BT-549 breast): > 100 µM
- TGI (DU-145 prostate): > 100 µM
- TGI (T-47D breast): > 100 µM
- TGI (SF-268 CNS): > 100 µM
- TGI (NCI-H460 lung): > 100 µM

SMILES: O=c1[nH]c(=S)nc2nc3c4ccc[nH]c4c4ccccc4c3nc12
- TGI (BT-549 breast): > 100 µM
- TGI (DU-145 prostate): > 100 µM
- TGI (SF-268 CNS): > 100 µM
- TGI (NCI-H460 lung): > 100 µM

SMILES: CC(=O)NC1C(OCc2ccccc2)OC(CO)C(O)C1OC(C)C(=O)NC(C)C(=O)NC(CCC(=O)NCCCCNc1c2ccccc2nc2cccc([N+](=O)[O-])c12)C(N)=O (stereo not drawn)
- TGI (BT-549 breast): 0.531 µM
- TGI (DU-145 prostate): 0.049 µM
- TGI (T-47D breast): 0.961 µM
- TGI (NCI-H226 lung): 0.43 µM
- TGI (SF-268 CNS): 0.316 µM
- TGI (NCI-H460 lung): 0.0363 µM

SMILES: COc1ccc(/C(Br)=C2\OC(=O)c3ccccc32)cc1
- TGI (DU-145 prostate): > 10 µM
- TGI (T-47D breast): > 10 µM
- TGI (NCI-H226 lung): > 10 µM
- TGI (SF-268 CNS): > 10 µM
- TGI (NCI-H460 lung): > 10 µM

SMILES: COc1cc(O)c2c(=O)c(O)c(-c3ccc(O)c(OC)c3)oc2c1
- TGI (BT-549 breast): > 100 µM
- TGI (DU-145 prostate): > 100 µM
- TGI (T-47D breast): > 100 µM
- TGI (NCI-H226 lung): > 100 µM
- TGI (SF-268 CNS): > 100 µM
- TGI (NCI-H460 lung): > 100 µM

SMILES: CCCC1CCC(=C2C(=O)CCC2=O)O1 (stereo not drawn)
- TGI (BT-549 breast): > 100 µM
- TGI (DU-145 prostate): > 100 µM
- TGI (T-47D breast): > 100 µM
- TGI (NCI-H226 lung): > 100 µM
- TGI (SF-268 CNS): > 100 µM
- TGI (NCI-H460 lung): > 100 µM

SMILES: CCCCCCCC1(N=[N+]=[N-])C(=O)Nc2ccccc2C1=O (stereo not drawn)
- TGI (BT-549 breast): 30.4 µM
- TGI (DU-145 prostate): 31.8 µM
- TGI (T-47D breast): 35 µM
- TGI (SF-268 CNS): 33.3 µM
- TGI (NCI-H460 lung): 53.6 µM

SMILES: CCOC(=O)c1nc2cc(C(F)(F)F)ccc2nc1Nc1ccc(OC)cc1
- TGI (BT-549 breast): > 100 µM
- TGI (DU-145 prostate): > 100 µM
- TGI (T-47D breast): > 100 µM
- TGI (NCI-H226 lung): > 100 µM
- TGI (SF-268 CNS): > 100 µM

SMILES: Nc1ccc2c(c1)nc1n2C(c2c(F)cccc2F)SC1 (stereo not drawn)
- TGI (BT-549 breast): > 100 µM
- TGI (DU-145 prostate): > 100 µM
- TGI (T-47D breast): > 100 µM
- TGI (SF-268 CNS): > 100 µM
- TGI (NCI-H460 lung): > 100 µM

SMILES: O=c1[nH]nc(Cc2ccccc2)n1C1CCCC1
- TGI (DU-145 prostate): > 100 µM
- TGI (T-47D breast): > 100 µM
- TGI (NCI-H226 lung): > 100 µM
- TGI (SF-268 CNS): > 100 µM
- TGI (NCI-H460 lung): > 100 µM

SMILES: CCCCc1ccc(-n2sc3ncc(C)cc3c2=O)cc1
- TGI (BT-549 breast): 40.7 µM
- TGI (DU-145 prostate): > 100 µM
- TGI (T-47D breast): 63.1 µM
- TGI (NCI-H226 lung): > 100 µM
- TGI (NCI-H460 lung): > 100 µM

SMILES: CC1(c2nc3ccccc3[nH]2)CCC(C(=O)O)C(C)(C)O1 (stereo not drawn)
- TGI (BT-549 breast): > 100 µM
- TGI (DU-145 prostate): > 100 µM
- TGI (T-47D breast): > 100 µM
- TGI (NCI-H226 lung): > 100 µM
- TGI (SF-268 CNS): > 100 µM

SMILES: CC(=O)C1=CN=C2C(=O)N(c3ccccc3)N(C)C12C (stereo not drawn)
- TGI (BT-549 breast): > 100 µM
- TGI (DU-145 prostate): > 100 µM
- TGI (NCI-H226 lung): > 100 µM
